Tests used:
[1] = Test for water solubility; type: physicochemical; details: water
Description: 3. Test for water solubility
A standard plot of UV absorbance(220 nm) vs. concentration was made; and employed to determine water-solubility.
The mixture was then passed through a 0.45 micron disposable membrane filter before dilution and UV measurement.

murine leukemia L1210 = assay: Antitumor activity test on murine leukemia L1210 in vivo; set-up: species or system male BDF1 mice; details: days 1, 5, 9
Method in brief: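 Intraperitoneal L1210 model: 1×10^6 cells inoculated i.p. into 6-week-old male BDF1 mice (21±3 g) on day 0, seven per group. Compounds in 0.5% CMC given i.p. on days 1, 5 and 9; vehicle-only controls. T/C % from mean survival time of treated over control.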

ICR mice = assay: Acute toxicity test; type: in vivo; set-up: Lethality: unit not given here; details: for Lethality: 10080 min
Method in brief: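 Male and female 7-week-old ICR mice, 6 per group, dosed intraperitoneally. Signs and survival followed for 7 days, with autopsy of animals that died.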

[2] = tested on: murine leukemia L1210 cells; assay: Growth inhibition test on cultured murine leukemia L1210 cells; type: cell-based; details: 48 hours, 37° C., Trypan blue viability
Method in brief: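 L1210 cells (1×10^5) exposed to graded compound concentrations in RPMI 1640 with 10% fetal calf serum, 37° C, 5% CO2, 48 h. Viability by 0.17% Trypan blue staining, relative to untreated control cells.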

## CC1[O][Pt][O]C1=O.NCC1OC2(CCCC2)OC1CN [Example 15, (L-lactato-O,O')[(4R,5R)-4,5-bis(aminomethyl)-1,3-dioxolane-2-spiro-1'-cyclopentane]platinum(II)]
[1]
  Solubility in water: 4.9 mg/mL
Murine leukemia L1210; 12.5 mg/kg i.p.
  T/C (%): 225%
Murine leukemia L1210; 25 mg/kg i.p.
  T/C (%): 243%
Murine leukemia L1210; 50 mg/kg i.p.
  T/C (%): 192%
ICR mice; female, 41.3 mg/kg i.p.
  Number of dead mice for 7 days: 0/6
  Number of dead mice, 1st day: 0/6
  Lethality: 0.0
ICR mice; female, 54.9 mg/kg i.p.
  Number of dead mice for 7 days: 3/6
  Number of dead mice, 1st day: 0/6
  Number of dead mice, 3rd day: 1/6
  Number of dead mice, 4th day: 1/5
  Number of dead mice, 5th day: 1/4
  Lethality: 50.0
ICR mice; female, 71.4 mg/kg i.p.
  Number of dead mice for 7 days: 5/6
  Number of dead mice, 1st day: 0/6
  Number of dead mice, 4th day: 1/6
  Number of dead mice, 5th day: 3/5
  Number of dead mice, 6th day: 1/2
  Lethality: 83.7
ICR mice; female, 91.8 mg/kg i.p.
  Number of dead mice for 7 days: 6/6
  Number of dead mice, 1st day: 0/6
  Number of dead mice, 2nd day: 1/6
  Number of dead mice, 3rd day: 2/5
  Number of dead mice, 4th day: 2/3
  Number of dead mice, 5th day: 1/1
  Lethality: 100.0
ICR mice; male, 41.3 mg/kg i.p.
  Number of dead mice for 7 days: 0/6
  Number of dead mice, 1st day: 0/6
  Lethality: 0.0
ICR mice; male, 54.9 mg/kg i.p.
  Number of dead mice for 7 days: 4/6
  Number of dead mice, 1st day: 0/6
  Number of dead mice, 3rd day: 2/6
  Number of dead mice, 6th day: 2/4
  Lethality: 66.7
ICR mice; male, 71.4 mg/kg i.p.
  Number of dead mice for 7 days: 5/6
  Number of dead mice, 1st day: 0/6
  Number of dead mice, 4th day: 4/6
  Number of dead mice, 5th day: 1/2
  Lethality: 83.3
ICR mice; male, 91.8 mg/kg i.p.
  Number of dead mice for 7 days: 6/6
  Number of dead mice, 1st day: 0/6
  Number of dead mice, 2nd day: 2/6
  Number of dead mice, 3rd day: 3/4
  Number of dead mice, 4th day: 1/1
  Lethality: 100.0
[2]
  IC50 (concentration required for 50% inhibition of growth): 0.33 µg/mL

## CC(C)C1O[C@H](CN)[C@@H](CN)O1.O=C1C[O][Pt][O]1 [Example 7, (glycolato-O,O')[(4R,5R)-4,5-bis(aminomethyl)-2-isopropyl-1,3-dioxolane]platinum(II)]
[1]
  Solubility in water: > 30 mg/mL
Murine leukemia L1210; 3.1 mg/kg i.p.
  T/C (%): 155%
Murine leukemia L1210; 6.2 mg/kg i.p.
  T/C (%): 166%
Murine leukemia L1210; 12.5 mg/kg i.p.
  T/C (%): 191%
Murine leukemia L1210; 25 mg/kg i.p.
  T/C (%): toxic
Murine leukemia L1210; 50 mg/kg i.p.
  T/C (%): toxic
ICR mice; female, 25.0 mg/kg i.p.
  Number of dead mice for 7 days: 0/6
  Number of dead mice, 1st day: 0/6
ICR mice; female, 32.5 mg/kg i.p.
  Number of dead mice for 7 days: 0/6
  Number of dead mice, 1st day: 0/6
ICR mice; female, 42.3 mg/kg i.p.
  Number of dead mice for 7 days: 1/6
  Number of dead mice, 1st day: 0/6
  Number of dead mice, 3rd day: 1/6
  Lethality: 16.7
ICR mice; female, 55.0 mg/kg i.p.
  Number of dead mice for 7 days: 2/6
  Number of dead mice, 1st day: 0/6
  Number of dead mice, 3rd day: 1/6
  Number of dead mice, 4th day: 1/5
  Lethality: 33.3
ICR mice; female, 71.4 mg/kg i.p.
  Number of dead mice for 7 days: 4/6
  Number of dead mice, 1st day: 0/6
  Number of dead mice, 3rd day: 3/6
  Number of dead mice, 4th day: 1/3
  Lethality: 66.7
ICR mice; male, 25.0 mg/kg i.p.
  Number of dead mice for 7 days: 0/6
  Number of dead mice, 1st day: 0/6
ICR mice; male, 32.5 mg/kg i.p.
  Number of dead mice for 7 days: 0/6
  Number of dead mice, 1st day: 0/6
ICR mice; male, 42.3 mg/kg i.p.
  Number of dead mice for 7 days: 2/6
  Number of dead mice, 1st day: 0/6
  Number of dead mice, 3rd day: 1/6
  Number of dead mice, 5th day: 1/5
  Lethality: 33.3
ICR mice; male, 55.0 mg/kg i.p.
  Number of dead mice for 7 days: 2/6
  Number of dead mice, 1st day: 0/6
  Number of dead mice, 3rd day: 1/6
  Number of dead mice, 4th day: 1/5
  Lethality: 33.3
ICR mice; male, 71.4 mg/kg i.p.
  Number of dead mice for 7 days: 4/6
  Number of dead mice, 1st day: 0/6
  Number of dead mice, 3rd day: 2/6
  Number of dead mice, 4th day: 2/4
  Lethality: 66.7
[2]
  IC50 (concentration required for 50% inhibition of growth): 0.06 µg/mL

Source: patent US5395947A, “Platinum(II) complex and processes for preparing the same” (Sunkyong Industries, Ltd., priority 1991, dated 1995)
